# From US20250059139A1, “COMPOUNDS FOR TREATMENT OF CANCER” (THE JOHNS HOPKINS UNIVERSITY, priority 2021, published 2025)
# Assays:
# [1] = tested on: CWR22-RH human prostate cancer PDXs; assay: In vivo growth of CWR22-RH xenografts in castrate NSG male mice; conditions: for CWR22-RH Tumor Growth (% inhibition +/− SD): castrate mice treated orally over a 3 week period, n = 5/group
# Source text: (§1) Prostate Cancer Models. The source, history, and characteristics of the human prostate cancer cell lines and PDXs used, as well as cell culture conditions for their in vitro maintenance and the in vivo protocol for xenograft growth in triple immune-deficient NSG (i.e. NOD.Cg-PrkdcScidIl2rgtmlWji/Szj), adult (>8 week old) male mice obtained from the Sidney Kimmel Comprehensive Cancer Center (SKCCC) Animal Core Facility are described previously (Isaacs 2013; Brennen et al. JCI Insight. 2021, 6(8):e146827; Zhu et al. Oncogene 2020, 39(45): 6935-6949). Similar information concerning the TRAMP-C2 and B6CaP mouse prostate cancers originating in a C57BL/6J male mice are described previously (Foster et al. Cancer Res. 1997, 57: 3325-3330; Simons et al. Oncotarget. 2019, 10(64):6845-6854). In vitro growth curves were determined as described (Isaacs 2013). In vivo growth response to oral daily TasQ (10 mg/kg/d) of TRAMP-C2 mouse prostate cancers was evaluated in C57BL/6J syngeneic wild type vs. NOX-2 vs. iNOS null male mice obtained from Jackson Laboratory (Bar Harbor, ME). Growth response to oral daily TasQ (10 mg/kg/d) of TRAMP-C2 and B6CaP mouse prostate cancers was also evaluated in S100A9 null C57BL′6J male mice obtained from Dmitry Gabrilovich (Wistar Institute). All lines were mycoplasma negative using the MycoSensor PCR Assay kit (Agilent Technologies) and genetically authenticated within the last 6 months using short tandem repeat profiling conducted by the Johns Hopkins Genetic Resource Core Facility. In vitro growth curves were determined as described (Isaacs 2013). Growth response to daily oral TasQ vs. ESATA-20 (both at 10 mg/kg/d) of Myc-CaP-CR mouse prostate cancer was evaluated in syngeneic FVB/NJ castrate male mice from Jackson Laboratory. Animal studies were conducted according to animal protocols approved by Johns Hopkins Animal Care and Use Committee. Tumor volume measurements were as described previously (id.). In vivo experiments were repeated multiple independent times for each model used with 3-5 mice per treatment grouping.
# Oral Drug treatment. TasQ at the indicated dose was initially dissolved with equal molar 1 N sodium hydroxide. This solution was diluted with sterile water and the mixture stirred for 1 hr. The pH was then adjusted with 1 N HCl to 8.9 and 200 μL given daily via oral gavage.
# Due to these combined effects, maximal growth inhibition of CWR22-RH, a castration-resistant prostate cancer patient-derived xenograft (PDX), is obtained as maintenance therapy with oral daily dosing of ≥5 mg/kg/d (FIG. 1). […] Previous studies documented that in vitro treatment of human prostate cancer cells (LNCaP) with 1-10 μM TasQ rapidly (i.e., ≤1 day) induces the transcription of a series of AHR target genes (e.g., Cyp1a1, Cyp1b1, AHRR, TPARP, GDF15) (Olsson 2010). […]
# LNCaP cells = assay: In vitro growth of LNCaP cells; type: cell-based, human; conditions: for LNCaP growth when combined with 3 nM docetaxel: 10 μM compound + 3 nM docetaxel
# Source text: as §1
# Similarly, under such optimal conditions, knocking down HDAC4 expression by 50% with shRNA only decreases the growth of LNCaP cells by <25%, which is equivalent to the inhibition by TasQ at 10 μM (FIG. 22). […] In contrast to normoxic in vitro conditions, cancers outgrow their blood supply in vivo, producing a TME that is hypoxic, nutrient-limited, and acidic (low pH). For example, when prostate cancer xenografts growing subcutaneously reach a size of ˜0.2-0.3 cc, the TME is already hypoxic with a pO2 of 3.6+/−1.5 mmHg compared to 37.5+/−8.6 mmHg in normal tissue (Dalrymple et al. Prostate 72, 638-648 (2012)). […]
# [2] = molecular target: T1, nuclear MEF2/HDAC4/NCoR1 formation in CWR-22Rv1 cells (Homo sapiens, UniProt P56524); assay: Nuclear NCoR1 immunoprecipitated with MEF-2 antibody in CWR-22Rv1 cells under hypoxia; type: cell-based; conditions: 1% O2, read-out: IC50 for inhibiting hypoxia-induced nuclear MEF2/HDAC4/NCoR1 formation (MEF-2 and NCoR1 IP)
# T1 construct: endogenous in cells; host or cells: CWR-22Rv1 cells, nuclear extracts, 1% O2
# T1 sequence (P56524 whole entry): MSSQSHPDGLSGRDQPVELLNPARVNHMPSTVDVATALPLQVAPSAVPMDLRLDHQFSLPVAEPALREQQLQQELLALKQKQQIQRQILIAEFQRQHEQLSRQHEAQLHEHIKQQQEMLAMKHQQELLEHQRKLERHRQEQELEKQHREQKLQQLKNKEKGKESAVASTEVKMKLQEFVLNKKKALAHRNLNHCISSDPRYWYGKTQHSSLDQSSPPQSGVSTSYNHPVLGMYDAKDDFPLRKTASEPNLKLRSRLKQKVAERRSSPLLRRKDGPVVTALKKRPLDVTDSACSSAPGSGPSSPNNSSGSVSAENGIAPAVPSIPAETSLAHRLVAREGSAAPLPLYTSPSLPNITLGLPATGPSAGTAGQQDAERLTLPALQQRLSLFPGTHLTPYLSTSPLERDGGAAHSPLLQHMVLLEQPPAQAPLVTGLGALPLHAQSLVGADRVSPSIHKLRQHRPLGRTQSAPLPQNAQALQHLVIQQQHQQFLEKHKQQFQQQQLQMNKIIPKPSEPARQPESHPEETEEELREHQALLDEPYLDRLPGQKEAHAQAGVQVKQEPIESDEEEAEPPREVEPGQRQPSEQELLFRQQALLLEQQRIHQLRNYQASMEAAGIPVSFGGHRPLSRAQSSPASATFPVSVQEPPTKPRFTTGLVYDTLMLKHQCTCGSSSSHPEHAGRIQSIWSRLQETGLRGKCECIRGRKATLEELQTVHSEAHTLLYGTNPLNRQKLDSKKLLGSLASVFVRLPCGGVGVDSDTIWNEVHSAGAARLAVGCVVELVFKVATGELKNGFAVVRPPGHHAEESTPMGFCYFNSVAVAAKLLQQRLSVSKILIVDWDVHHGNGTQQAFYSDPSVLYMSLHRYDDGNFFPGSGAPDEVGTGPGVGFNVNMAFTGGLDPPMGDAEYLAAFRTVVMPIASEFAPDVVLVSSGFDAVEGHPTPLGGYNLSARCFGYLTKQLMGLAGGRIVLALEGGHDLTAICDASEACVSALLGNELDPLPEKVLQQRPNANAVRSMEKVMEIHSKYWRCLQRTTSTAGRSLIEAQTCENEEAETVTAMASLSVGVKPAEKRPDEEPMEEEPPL
# Source text: While HIF-1α is required for the upregulation of hypoxia survival genes, it is not required for the hypoxia-induced widespread transcriptional repression, which is also needed for enhanced survival in the compromised TME (Denko et al. Nat Rev Cancer 8, 705-713 (2008)). MEF-2 is also a HDAC4 client (McKinsey et al. Trends Biochem Sci 27, 40-47 (2002)). MEF-2 dimers bind to target gene promoters, forming a hydrophobic groove composed of AA 1-78 of each monomer to which HDAC4 binds via its amphipathic helix at AA 168-184 (Han et al. J Mol Biol 345, 91-102 (2005)). When MEF-2 binds, HDAC4 forms a NCoR1/HDAC3 complex, which deacetylates MEF2 and histones within its proximity; thereby, repressing expression of its target genes (McKinsey 2002). When CWR-22Rv1 cells are switched from a 21% to a 1% 02 environment in vitro, there is a 3-fold increase in NCoR1 immunoprecipitated with MEF-2 from nuclear extracts (FIG. 36). Co-treatment with TasQ inhibits this hypoxia-induced increase in nuclear MEF2/HDAC4/NCoR1 formation with an IC50 of 5 μM (FIG. 36). These in vitro results are consistent with gene expression analysis of CWR22-RH PDX tissue from castrate hosts in vivo, which document that daily oral TasQ (10 mg/kg/d) inhibits the binding of NCoR1, and thus HDAC3 to the MEF-2/HDAC4 complex, relieving repression of MEF-2 target genes needed for survival under hypoxic conditions (Table 1B).
SMILES,anti-cancer efficacy compared with TasQ ([1]; 10 mg/kg/d),CWR22-RH Tumor Growth (% inhibition +/− SD) ([1]; 10 mg/kg/d),fold more potent than TasQ in inhibiting CWR22-RH xenograft growth ([1]; on a molar basis),LNCaP growth when combined with 3 nM docetaxel (LNCaP cells),"IC50 (LNCaP cells; Homo sapiens, LNCaP line) [µM]",IC50 [2] [µM],plasma concentration required to maximally inhibit in vivo prostate cancer xenograft growth ([1]; combined xenograft and PK results) [µM],"oral daily dose giving maximal growth inhibition ([1]; maintenance therapy, CWR22-RH PDX) [mg/kg/day]","inhibition at 10 µM (LNCaP cells; Homo sapiens, LNCaP, 10 μM, normoxic) [%]"
COc1cccc2c1c(O)c(C(=O)N(c1ccc(C(F)(F)F)cc1)C1CCCCC1)c(=O)n2C [ESATA-20],same maximal anti-cancer efficacy as TasQ,80 +/− 15%,at least 5 fold,completely inhibited,> 10,< 1,,,
"COc1cccc2c1c(O)c(C(=O)N(C)c1ccc(C(F)(F)F)cc1)c(=O)n2C [TasQ, Tasquinimod]",,87 +/− 11%,,does not occur,,5,> 2,≥ 5,< 25
